Assay results from patent publication US20190002429A1, “Derivatives of Xanthone Compounds” (Agency for Science, Technology and Research, priority 2011, published 2019).
“And” between values parts separate entries of the source, which are not always exact repeats. Equal values may be shown once. “Also recorded” adds a separate entry of the source.

Key:
MRSA = experiment: MIC99 against MRSA (Table 2-1); assay type: cell-based, Staphylococcus aureus
[1] = system: MRSA QC Strain ATCC BAA1026; experiment: MIC against MRSA QC strain ATCC BAA1026; assay type: cell-based, Staphylococcus aureus
Gram-positive bacteria = experiment: Antimicrobial activity against Gram-positive bacteria (statement); assay type: cell-based
rabbit cornea = settings: in vivo
Description: The particular model used was a 5 mm diameter corneal epithelial abrasion model. Wound healing was monitored by a slit lamp using flourescein disclosure dye so that the size of the wound could be measured. The compounds were applied topically three times per day.

[2] = Calcein leakage from E. coli lipid extract liposomes; settings: for % Leakage of calcein: E. coli extract
Procedure: (§1) To further investigate antimicrobial action of the active compounds via inner membrane targeting, a calcein leakage study was performed. In brief, liposomes which mimic bacterial membrane (DOPE: […] The lipids were dissolved in methanol/chloroform (1:2, by volume). The solvent was then dried gently using a constant stream of nitrogen gas. Then, the lipid film was placed under vacuum for at least two hours. […] The hydrated vesicles were freeze-thaw (frozen in liquid nitrogen and warmed in water bath) for at least 7 cycles. Extrusion method using mini-extruder (Avanti Polar Lipid Inc.) was used to produce homogeneous large unilamellar vesicles (LUVs). The extrusion was done for at least 10 cycles using a polycarbonate membrane (Whatman, pore size 100 nm) to obtain LUVs with diameter of 100 nm. To separate the calcein encapsulated vesicles from free calcein, gel filtration column Sephadex G-50 was used. The concentrations of eluted liposomes were determined using total phosphorus determination assay. Leakage of calcein from the liposome induced by AM-series compounds could be monitored using fluorescence spectroscopy (Photon Technology International Model 814) at an excitation wavelength of 490 nm and an emission wavelength of 520 nm. […] Those compounds with […] HC50 values have stronger leakage %. […] To further investigate the inner membrane targeting action of AM-series compounds, E. coli lipid extract was used to construct the liposome. […] Therefore, the outer layer of Gram-negative bacteria (LPS) may play important role to impede the AM-series compounds to reach inner membrane. Calcein leakage data strongly support the active compounds are inner membrane targeting.

[3] = system: Klebsiella pneumoniae ATCC10031; experiment: MIC against Klebsiella pneumoniae ATCC10031; assay type: cell-based
MRSA DM21455 [4] = experiment: Drug resistance test, 20 serial passages; assay type: cell-based, Staphylococcus aureus; settings: MRSA DM21455, FIG. 7
[5] = system: Staphylococcus aureus 10: DB6506 (MRSA04/10) (VISA); experiment: MIC against S. aureus DB6506 (VISA); assay type: cell-based; settings: no unit in table (Example 10 MICs in μg/ml)
[6] = system: Staphylococcus aureus ATCC 700699 (VISA); experiment: MIC against S. aureus ATCC 700699 (MRSA-700699, VISA); assay type: cell-based
[7] = Calcein leakage from DOPE:DOPG liposomes; settings: DOPE:DOPG = 3:1
Procedure: as §1

[8] = system: Staphylococcus aureus ATCC 6538; experiment: MIC against S. aureus ATCC 6538; assay type: cell-based
[9] = system: Clinical Staphylococcus aureus DM4001; experiment: Cytoplasmic membrane depolarization (DiSC3 dye); assay type: cell-based; settings: DiSC3 fluorescence; AM-016 at 12.5 ug/mL
Procedure: Membrane potential-sensitive dye 3,3′-dipropylthiadicarbocyanine iodide (DiSC3) was used to determine the cytoplasmic membrane depolarization activity of AM-016. An overnight culture of clinical Staphylococcus aureus DM4001(source: Eye) was allowed to grow in Muller-Hinton broth (MHB) to OD620=0.3-0.4. Then, the bacteria was collected by centrifugation at 2800 r.p.m at 37° C. for 30 minutes and washed with 5 mM HEPES buffer at pH7. […] The cell suspension was then incubated with 0.1M KCl and 0.4 μM DiSC3 at 37° C. for 30 minutes. Dye uptake was monitored by fluorospectrometry (Photon Technology International (PTI) Photomultiplier Detection Systems, model 814) in a stirred cuvette until the fluorescence signal was stable. The desired concentration of AM-016 was added and the fluorescence was monitored at an excitation wavelength of 622 nm and at an emission wavelength of 670 nm. A blank with dye in the absence of bacteria with same concentration of AM-016 was used as a control.

[10] = system: Straphylococcus aureus ATCC 6538P; experiment: MIC against S. aureus ATCC 6538P; assay type: cell-based, Staphylococcus aureus
MRSA DM21455 [11] = experiment: MIC against MRSA DM21455; assay type: cell-based, Staphylococcus aureus

In the case of “3,6-bis-[4-(diethylamino)butoxy)]-1-hydroxy-7-methoxy-2,8-bis(3-methylbut-2-enyl)-9H-xanthen-9-one [AM-016]”, the “MIC99 MRSA” value (MRSA) is reported as 0.39 µg/mL, the “Minimum inhibition concentration (MIC)” value [1] is reported as 3.125 μg/ml and 4.70 μM and the “Activity against Gram-positive bacteria” value (Gram-positive bacteria) is reported as “active”. For the same substance, the “Cytotoxicity to the rabbit eye in corneal wound healing model” value (rabbit cornea) was “does not exhibit any cytotoxicity”, the “Effect on wound healing (percentage wound closing)” value (rabbit cornea) was “does not delay wound healing” and the “Leakage of calcein from the E. coli lipid extract (in words)” value [2] was “able to induce leakage”. For the same substance, the “% Leakage of calcein” value ([2]; compound:lipid ratio 1:2) was 57.82%, the “% Leakage of calcein” value ([2]; compound:lipid ratio 1:4) was 58.43% and the “% Leakage of calcein” value ([2]; compound:lipid ratio 1:8) was 31.70%. The “Minimum inhibition concentration (MIC)” value [3] was 40 μg/ml and 60.16 μM, the “Development of drug resistance” value (MRSA DM21455 [4]) was “has difficulty in developing drug resistance” and the Minimum inhibitory concentration [5] was 0.78. For the same substance, the MIC ([6]; MRSA-700699, Example 10, Mueller Hinton broth dilution) was 0.095 µg/mL, the Minimum inhibitory concentration ([6]; S. aureus ATCC 700699 (VISA), no unit in table (Example 10 MICs in μg/ml)) was 0.39 and the “% Leakage of calcein” value ([7]; compound:lipid ratio 1:2) was 54.43%. For the same substance, the “% Leakage of calcein” value ([7]; compound:lipid ratio 1:4) was 37.00%, the “% Leakage of calcein” value ([7]; compound:lipid ratio 1:8) was 21.00% and the “Minimum inhibition concentration (MIC)” value [8] was 1.56 μg/ml and 2.35 μM. For the same substance, the Cytoplasmic membrane depolarization [9] was “causes membrane depolarization; also recorded: depolarizes”, the “Minimum inhibition concentration (MIC)” value [10] was 0.78 μg/ml and 1.17 μM and the “Minimum inhibition concentration (MIC)” value (MRSA DM21455 [11]; MRSA DM21455, Source: Eye) was 0.39 μg/ml and 0.59 μM. The MIC (MRSA DM21455 [11]; MRSA-21455 (Eye), Example 10, Mueller Hinton broth dilution) was 1.56 µg/mL.
